Experiment [1] deals with HepG2. Nature of the experiment: Antiproliferative activity against human HepG2 cells after 72 hrs by MTT assay. Format: functional, cell-based. The conditions noted are these: HepG2, 72 h.
Experiment [2] relates to MCF7. Nature of the experiment: Antiproliferative activity against human MCF7 cells after 72 hrs by MTT assay. Format: functional, cell-based. The note with it: MCF7, 72 h. On the technique in general: Formazan colour is commonly taken as a measure of viable cells.
Experiment [3] deals with B16-F10. Kind of experiment: Antiproliferative activity against mouse B16F10 cells after 72 hrs by MTT assay. Format: functional, cell-based. The conditions noted are these: B16-F10, 72 h.
The subject of experiment [4] is DU-145. Nature of the experiment: Antiproliferative activity against human DU145 cells after 72 hrs by MTT assay. It counts as functional, cell-based. The conditions noted are these: DU-145, 72 h.
Experiment [5] has as its system HepG2. Nature of the experiment: Cell cycle arrest in human HepG2 cells assessed as accumulation at S phase at 0.25 uM after 24 hrs by RNase A/propidium iodide staining-based flow cytometric analysis (reference value: 28.30%). It counts as functional. In general terms: Flow cytometry measures light scatter and fluorescence of single cells or particles in a stream.

For experiment [6], the system named is MDA-MB-231. Nature of the experiment: Antiproliferative activity against human MDA-MB-231 cells after 72 hrs by MTT assay. Format: functional, cell-based. The note with it: MDA-MB-231, 72 h.
A short description of experiment [7]: Antiproliferative activity against human HCT8/T cells after 72 hrs by MTT assay. The note with it: HCT-8, 72 h. It counts as functional, cell-based.
Experiment [8] is filed under the species Sus scrofa. Nature of the experiment: (§1) Inhibition of tubulin polymerization in porcine brain assessed as disruption of tubulin assembly by spectrophotometric analysis.
Experiment [9] in a line: as §1. Further details: species or system Sus scrofa.
The subject of experiment [10] is HepG2. Nature of the experiment: Cell cycle arrest in human HepG2 cells assessed as accumulation at G1 phase at 0.5 uM after 24 hrs by RNase A/propidium iodide staining-based flow cytometric analysis (reference value: 50.61%). Format: functional.
The test system of experiment [11] is HepG2. Nature of the experiment: Cell cycle arrest in human HepG2 cells assessed as accumulation at S phase at 0.5 uM after 24 hrs by RNase A/propidium iodide staining-based flow cytometric analysis (reference value: 28.30%). It counts as functional.
The subject of experiment [12] is HepG2. Kind of experiment: Cell cycle arrest in human HepG2 cells assessed as accumulation at G1 phase at 0.25 uM after 24 hrs by RNase A/propidium iodide staining-based flow cytometric analysis (reference value: 50.61%). Format: functional.
In experiment [13] the test system is HepG2. Nature of the experiment: Cell cycle arrest in human HepG2 cells assessed as accumulation at G2/M phase at 0.25 uM after 24 hrs by RNase A/propidium iodide staining-based flow cytometric analysis (reference value: 21.09%). Format: functional.
Experiment [14] relates to HepG2. Kind of experiment: Cell cycle arrest in human HepG2 cells assessed as accumulation at G2/M phase after 24 hrs by RNase A/propidium iodide staining-based flow cytometric analysis. Format: functional.
For experiment [15], the system named is HCT-116. Kind of experiment: Antiproliferative activity against human HCT116 cells after 72 hrs by MTT assay. Format: functional, cell-based. The note with it: HCT-116, 72 h.
Experiment [16] concerns HeLa. Nature of the experiment: Antiproliferative activity against human HeLa cells after 72 hrs by MTT assay. It counts as functional, cell-based.
The test system of experiment [17] is HepG2. Nature of the experiment: Cell cycle arrest in human HepG2 cells assessed as accumulation at G2/M phase at 0.5 uM after 24 hrs by RNase A/propidium iodide staining-based flow cytometric analysis (reference value: 21.09%). Format: functional.
The subject of experiment [18] is CHL-1. Nature of the experiment: Antiproliferative activity against human CHL-1 cells. Format: functional, cell-based.
Experiment [19] deals with MCF7. Nature of the experiment: Antiproliferative activity against human MCF7 cells. Format: functional, cell-based.
The test system of experiment [20] is A549. Nature of the experiment: Antiproliferative activity against human A549 cells. It counts as functional, cell-based.
In experiment [21] the test system is SK-OV-3. Nature of the experiment: Antiproliferative activity against human SKOV3 cells. It counts as functional, cell-based.
The subject of experiment [22] is A2780S. Kind of experiment: Antiproliferative activity against human A2780S cells. It counts as functional, cell-based.
Experiment [23] deals with HT-29. Nature of the experiment: Antiproliferative activity against human HT-29 cells. It counts as functional, cell-based.
Experiment [24] relates to HepG2. Nature of the experiment: Antiproliferative activity against human HepG2 cells. It counts as functional, cell-based.

SMILES strings stand for the structures.

For the compound `COc1cc(C(=O)/C(C#N)=N/Nc2ccc(C(F)(F)F)cc2)cc(OC)c1OC`, the half-inhibitory concentration (IC50) stood at 2680 nM in experiment [1] and 3020 nM in [2].

Consider `COc1cc(N/N=C(\C#N)C(=O)c2cc(OC)c(OC)c(OC)c2)cc(OC)c1OC`, for which the 50% inhibitory concentration (IC50) in experiment [1] and in [2] was more than 10000 nM throughout.

Turning to `COc1cc(C(=O)/C(C#N)=N/Nc2ccc(F)cc2)cc(OC)c1OC`, the values for the IC50 in experiment [1] and in experiment [2] were 9710 nM and 9840 nM, respectively.

For `COc1cc(C(=O)/C(C#N)=N/Nc2ccc([N+](=O)[O-])cc2)cc(OC)c1OC`, the IC50 in experiment [1] and in experiment [2] was more than 10000 nM each time.

Take `COc1ccc(N/N=C(\C#N)C(=O)c2cc(OC)c(OC)c(OC)c2)cc1O`: the IC50 in experiment [3] turned out to be 2110 nM; in experiment [4], 77 nM; in experiment [1] it was 320 nM; in experiment [6], 720 nM; in experiment [7], 3960 nM; in experiment [9] it was 900 nM. The half-maximal inhibitory concentration (IC50) in [2] was 260 nM; in experiment [15], 810 nM; in [16], 81 nM. Besides, the Activity is 17.01% in experiment [5]; 0.45% in [10]; 5.43% in [11]; 4.09% in [12]; 78.89% in [13]; “Dose-dependent effect” in experiment [14]. Further, the Activity in experiment [17] came to 94.12%. The inhibition result in experiment [8] is “Dose-dependent effect”.

As for `COc1cc2c(c(OC)c1OC)-c1ccc(OC)c(=O)cc1[C@@H](NC(C)=O)CC2` [COLCHICINE], the IC50 in experiment [3] turned out to be 44.2 nM; in experiment [4], 3.45 nM; in experiment [6], 77.6 nM; in experiment [7], 227 nM; in experiment [15] it was 26.2 nM; in [16], 8.89 nM.

Regarding `COc1cc(C(=O)/C(C#N)=N/Nc2ccc(C)cc2)cc(OC)c1OC`, the IC50 in [3] came to 2230 nM; in [4], 98 nM; in experiment [1] it was 610 nM; in experiment [6], 2240 nM; in [7] it was 7640 nM; in experiment [2], 430 nM. Besides, the IC50 was 870 nM in [15] and 310 nM in [16].

`COc1cccc(N/N=C(\C#N)C(=O)c2cc(OC)c(OC)c(OC)c2)c1`: the IC50 in experiment [1] was determined as 6460 nM; in [2], 8820 nM.

Turning to `COc1ccc(N/N=C(\C#N)C(=O)c2cc(OC)c(OC)c(OC)c2)cc1`, the half-inhibitory concentration (IC50) in experiment [3] turned out to be 3260 nM; in experiment [4], 120 nM; in experiment [1] it was 440 nM; in [6] it was 2460 nM; in [7] it was 4620 nM; in experiment [2], 280 nM. Further, the IC50 turned out to be 3190 nM in experiment [15] and 220 nM in [16].

With `COc1cc(C(=O)/C(C#N)=N/Nc2cccc(C)c2)cc(OC)c1OC`, the IC50 is 6110 nM in [1] and 5890 nM in experiment [2].

As to `COc1cc(C(=O)/C(C#N)=N/Nc2ccccc2)cc(OC)c1OC`, the IC50 turned out to be 5190 nM in experiment [1] and 6380 nM in experiment [2].

On to `COc1cc(C(=O)/C(C#N)=N/Nc2ccccc2F)cc(OC)c1OC`, for which the IC50 in experiment [1] turned out to be 2100 nM; in experiment [2] it was 1690 nM.

For `CCOc1ccccc1N/N=C(\C#N)C(=O)c1cc(OC)c(OC)c(OC)c1`, the IC50 in experiment [1] and in [2] was more than 10000 nM each time.

For the compound `COc1cc(C(=O)/C(C#N)=N/Nc2ccc(Cl)cc2Cl)cc(OC)c1OC`, the IC50 in experiment [1] and in experiment [2] was more than 10000 nM each time.

Take `CCOc1ccc(N/N=C(\C#N)C(=O)c2cc(OC)c(OC)c(OC)c2)cc1`: the IC50 is 6620 nM in [1] and 7010 nM in [2].

`COc1ccc(N/C=C(\C#N)C(=O)c2cc(OC)c(OC)c(OC)c2)cc1`: the IC50 came to 1220 nM in experiment [18]; 1840 nM in experiment [19]; 1380 nM in experiment [1]; 2090 nM in experiment [20]; 1930 nM in [2]; 1270 nM in experiment [21]. Besides, the IC50 in experiment [22] was determined as 1880 nM; in experiment [23], 1280 nM; in experiment [24], 1200 nM.

As usually defined, the IC50 is the midpoint of a concentration-inhibition curve.

Source of the values: ChEMBL document CHEMBL4265910, “(E)-N-Aryl-2-oxo-2-(3,4,5-trimethoxyphenyl)acetohydrazonoyl cyanides as tubulin polymerization inhibitors: Structure-based bioisosterism design, synthesis, biological evaluation, molecular docking and in silico ADME prediction” (Bioorg Med Chem Lett, 2018).
